According to paper PMC3681751, “Identification of a Novel Antimicrobial Peptide from Human Hepatitis B Virus Core Protein Arginine-Rich Domain (ARD)” (PLoS Pathogens, 2013):
Read-outs that look alike come from different tables or passages of the source. Non-standard residues stand in square brackets, D forms with d. Residues, ends and D or L forms follow the SMILES beside them. No end group written: not given here. pS = N[C@@H](COP(=O)(O)O)C(=O)O

What was measured:
E. coli (ATCC 25922) = format: cell-based, Escherichia coli
Procedure: (§1) The antimicrobial activities of HBc ARD peptides were tested using a number of bacterial strains from ATCC, including Pseudomonas aeruginosa Migula strain (ATCC 27853, ampicillin-resistant), Pseudomonas aeruginosa Migula strain (ATCC 9027, ampicillin-resistant), Klebsiella pneumoniae strain (ATCC 17593), Escherichia coli strain (ATCC 25922), Staphylococcus aureus subsp. strain (ATCC 25923, methicillin-resistant), Staphylococcus aureus subsp. strain (ATCC 29213, methicillin-resistant), Staphylococcus aureus subsp. strain (ATCC 19636, methicillinresistant), and Candida albicans strain (ATCC 10231).
(§2) All peptides were purchased from Yao-Hong Biotechnology Inc. (Taipei, Taiwan). Vendors provided data of peptide characterizations, including HPLC and Mass (data not shown). Antimicrobial activity was determined as described with some modifications as detailed below. Bacteria were grown overnight in Mueller–Hinton broth (Difco) at 37°C, and during the mid-logarithmic phase, bacteria were diluted to 10^6 CFU (colony formation unit)/ml in phosphate buffer (10 mM sodium phosphate and 50 mM sodium chloride, pH 7.2). Peptides were serially diluted in the same buffer. Fifty microliter (µl) of bacteria was mixed with fifty µl of peptides at varying concentrations followed by incubation at 37°C for 3 hours without shaking. At the end of incubation, bacteria were placed on Mueller-Hinton broth agar plates, and allowed growth at 37°C overnight for measurement of minimal bactericidal concentration (MBC). […] All peptides were tested in triplicate.

S. aureus (ATCC 25923) = format: cell-based, Staphylococcus aureus
Procedure: as §1, §2

S. aureus (ATCC 19636) = format: cell-based, Staphylococcus aureus
Procedure: as §1, §2

S. aureus (ATCC 29213) = format: cell-based, Staphylococcus aureus
Procedure: as §1, §2

[1] = system: tested bacteria and fungi; format: cell-based; conditions: summary over the tested bacteria of Table 1
Procedure: as §1, §2

[2] = system: P. aeruginosa (ATCC 9027); format: cell-based, Pseudomonas aeruginosa
Procedure: as §1, §2

[3] = system: P. aeruginosa (ATCC 27853); format: cell-based, Pseudomonas aeruginosa
Procedure: as §1, §2

[4] = system: K. pneumonia (ATCC 13884); format: cell-based, Klebsiella pneumoniae
[5] = 3 h at 37°C in phosphate buffer pH 7.2, triplicate
[6] = methicillin-resistant strain, 3 h at 37°C in phosphate buffer pH 7.2, triplicate
[7] = ampicillin-resistant strain, 3 h at 37°C in phosphate buffer pH 7.2, triplicate
[8] = 3 h at 37°C in 10 mM sodium phosphate, 50 mM NaCl, pH 7.2, 10^6 CFU/ml, triplicate, ND = not detectable
[9] = methicillin-resistant strain, 3 h at 37°C in 10 mM sodium phosphate, 50 mM NaCl, pH 7.2, 10^6 CFU/ml, triplicate, ND = not detectable
[10] = ampicillin-resistant strain, 3 h at 37°C in 10 mM sodium phosphate, 50 mM NaCl, pH 7.2, 10^6 CFU/ml, triplicate, ND = not detectable

Compound | Antimicrobial activity, MBC (E. coli (ATCC 25922); [5]) [mg/L] | Antimicrobial activity, MBC (E. coli (ATCC 25922); ATCC 25922, 3 h, pH 7.2) [µM] | Antimicrobial activity, MBC (S. aureus (ATCC 25923); ATCC 25923, 3 h, pH 7.2) [µM] | Antimicrobial activity, MBC (S. aureus (ATCC 25923); [6]) [mg/L] | Antimicrobial activity, MBC (S. aureus (ATCC 19636); ATCC 19636, 3 h, pH 7.2) [µM] | Antimicrobial activity, MBC (S. aureus (ATCC 19636); [6]) [mg/L] | Antimicrobial activity, MBC (S. aureus (ATCC 29213); ATCC 29213, 3 h, pH 7.2) [µM] | Antimicrobial activity, MBC (S. aureus (ATCC 29213); [6]) [mg/L] | MBC for bacteria [1] | Antimicrobial activity, MBC ([2]; ATCC 9027, 3 h, pH 7.2) [µM] | Antimicrobial activity, MBC [2, 7] [mg/L] | Antimicrobial activity, MBC [3, 7] [mg/L] | Antimicrobial activity, MBC [4, 5] [mg/L] | Antimicrobial activity, MBC (E. coli (ATCC 25922); [8]) [µM] | Antimicrobial activity, MBC (S. aureus (ATCC 25923); [9]) [µM] | Antimicrobial activity, MBC (S. aureus (ATCC 19636); [9]) [µM] | Antimicrobial activity, MBC (S. aureus (ATCC 29213); [9]) [µM] | Antimicrobial activity, MBC [2, 10] [µM] | Antimicrobial activity, MBC [3, 10] [µM] | Antimicrobial activity, MBC [4, 8] [µM] | other results
CC(C)[C@H](NC(=O)[C@@H](NC(=O)[C@@H](N)[C@@H](C)O)C(C)C)C(=O)N[C@@H](CCCNC(=N)N)C(=O)N[C@@H](CCCNC(=N)N)C(=O)N[C@@H](CCCNC(=N)N)C(=O)NCC(=O)N[C@@H](CCCNC(=N)N)C(=O)N[C@@H](COP(=O)(O)O)C(=O)N1CCC[C@H]1C(=O)N[C@@H](CCCNC(=N)N)C(=O)N[C@@H](CCCNC(=N)N)C(=O)N[C@@H](CCCNC(=N)N)C(=O)N[C@H](C(=O)N1CCC[C@H]1C(=O)N[C@@H](COP(=O)(O)O)C(=O)N1CCC[C@H]1C(=O)N[C@@H](CCCNC(=N)N)C(=O)N[C@@H](CCCNC(=N)N)C(=O)N[C@@H](CCCNC(=N)N)C(=O)N[C@@H](CCCNC(=N)N)C(=O)N[C@@H](CO)C(=O)N[C@@H](CCC(N)=O)C(=O)N[C@@H](COP(=O)(O)O)C(=O)N1CCC[C@H]1C(=O)N[C@@H](CCCNC(=N)N)C(=O)N[C@@H](CCCNC(=N)N)C(=O)N[C@@H](CCCNC(=N)N)C(=O)N[C@@H](CCCNC(=N)N)C(=O)N[C@@H](CO)C(=O)N[C@@H](CCC(N)=O)C(=O)N[C@@H](CO)C(=O)N[C@@H](CCCNC(=N)N)C(=O)N[C@@H](CCC(=O)O)C(=O)N[C@@H](CO)C(=O)N[C@@H](CCC(N)=O)C(=O)N[C@@H](CS)C(=O)O)[C@@H](C)O [HBc155p162p170p] | > 154.5 | > 32 | > 32 | > 154.5 | > 32 | > 154.5 | > 32 | > 154.5 | > 32 µM | > 32 | > 154.5 | > 154.5 | > 154.5 |  |  |  |  |  |  |  | Antimicrobial activity, MBC ([3]; ATCC 27853, 3 h, pH 7.2): > 32 µM; Antimicrobial activity, MBC ([4]; ATCC 13884, 3 h, pH 7.2): > 32 µM
HBc155p: HBc147-183 phosphorylated on S155 (TVVRRRGRSPRRRTPSPRRRRSQSPRRRRSQSRESQC; phosphorylated S155; UniProt P03147 147-183, looked up, fragment) | 37.4 |  |  | 37.4 |  | 37.4 |  | 37.4 | 8 µM |  | 37.4 | 37.4 | 4.67 | 8 | 8 | 8 | 8 | 8 | 8 | 1 | 
HBc170p: HBc147-183 phosphorylated on S170 (TVVRRRGRSPRRRTPSPRRRRSQ[pS]PRRRRSQSRESQC; UniProt P03147 147-183, looked up, fragment) | ~149.5 |  |  | ~149.5 |  | ~149.5 |  | ~149.5 | 32 µM |  | ~149.5 | ~149.5 | 37.4 | ~32 | ~32 | ~32 | ~32 | ~32 | ~32 | 8 | 
CC(C)[C@H](NC(=O)[C@@H](NC(=O)[C@@H](N)[C@@H](C)O)C(C)C)C(=O)N[C@@H](CCCNC(=N)N)C(=O)N[C@@H](CCCNC(=N)N)C(=O)N[C@@H](CCCNC(=N)N)C(=O)NCC(=O)N[C@@H](CCCNC(=N)N)C(=O)N[C@@H](CO)C(=O)N1CCC[C@H]1C(=O)N[C@@H](CCCNC(=N)N)C(=O)N[C@@H](CCCNC(=N)N)C(=O)N[C@@H](CCCNC(=N)N)C(=O)N[C@H](C(=O)N1CCC[C@H]1C(=O)N[C@@H](CO)C(=O)N1CCC[C@H]1C(=O)N[C@@H](CCCNC(=N)N)C(=O)N[C@@H](C)C(=O)N[C@@H](C)C(=O)N[C@@H](CCCNC(=N)N)C(=O)N[C@@H](CO)C(=O)N[C@@H](CCC(N)=O)C(=O)N[C@@H](CO)C(=O)N1CCC[C@H]1C(=O)N[C@@H](CCCNC(=N)N)C(=O)N[C@@H](C)C(=O)N[C@@H](C)C(=O)N[C@@H](CCCNC(=N)N)C(=O)N[C@@H](CO)C(=O)N[C@@H](CCC(N)=O)C(=O)N[C@@H](CO)C(=O)N[C@@H](CCCNC(=N)N)C(=O)N[C@@H](CCC(=O)O)C(=O)N[C@@H](CO)C(=O)N[C@@H](CCC(N)=O)C(=O)N[C@@H](CS)C(=O)O)[C@@H](C)O [HBc147-183(34AA)] (H-TVVRRRGRSPRRRTPSPRAARSQSPRAARSQSRESQC-OH; N-terminus and C-terminus assumed) | > 135.94 | > 32 | > 32 | > 135.94 | > 32 | > 135.94 | > 32 | > 135.94 | significantly increased | 32 | 135.94 | 135.94 | 135.94 |  |  |  |  |  |  |  | Antimicrobial activity, MBC ([3]; ATCC 27853, 3 h, pH 7.2): 32 µM; Antimicrobial activity, MBC ([4]; ATCC 13884, 3 h, pH 7.2): 32 µM
HBc176p: HBc147-183 phosphorylated on S176 (TVVRRRGRSPRRRTPSPRRRRSQSPRRRR[pS]QSRESQC; UniProt P03147 147-183, looked up, fragment) | 37.4 |  |  | 37.4 |  | 37.4 |  | 37.4 | 8 µM |  | 37.4 | 37.4 | 18.68 | 8 | 8 | 8 | 8 | 8 | 8 | 4 | 
